Source: patent US20150315554A1, “CELL LINES EXPRESSING CFTR AND METHODS OF USING THEM” (Chromocell Corporation, priority 2009, published 2015)
Several values for one entry are separate records, joined by “and”; a condition that tells them apart may be missing. Equal entries are not always repeated.

System: human CFTR
Assay: high-throughput compatible fluorescence membrane potential assay, forskolin dose-response in stable CFTR-expressing CHO cell lines
Type: cell-based
Conditions: stable CFTR-expressing CHO cell line, 15,000 cells/well, 384-well plate, membrane potential dye
Protocol: CHO cell lines stably expressing CFTR were maintained under standard cell culture conditions in Ham's F12 medium supplemented with 10% fetal bovine serum and glutamine. On the day before assay, the cells were harvested from stock plates and plated into black clear-bottom 384 well assay plates at a density that is sufficient to attain 90% confluency on the day of the assay. The assay plates were maintained in a 37° C. cell culture incubator under 5% CO2 for 22-24 hours. The media was then removed from the assay plates and blue membrane potential dye (Molecular Devices Inc.) diluted in loading buffer (137 mM NaCl, 5 mM KCl, 1.25 mM CaCl2, 25 mM HEPES, 10 mM glucose) was added and allowed to incubate for 1 hour at 37° C. The assay plates were then loaded on a fluorescent plate reader (Hamamatsu FDSS) and a cocktail of forskolin and IBMX dissolved in compound buffer (137 mM sodium gluconate, 5 mM potassium gluconate, 1.25 mM CaCl2, 25 mM HEPES, 10 mM glucose) was added. For forskolin dose-response experiments, cells of the produced stable CFTR-expressing cell lines, plated at a density of 15,000 cells/well in a 384-well plate were challenged with increasing concentration of forskolin, a known CFTR agonist. The cellular response as a function of changes in cell fluorescence was monitored over time by a fluorescent plate reader (Hamamatsu FDSS).

`C=C[C@@]1(C)CC(=O)[C@]2(O)[C@@]3(C)[C@@H](O)CCC(C)(C)[C@@H]3[C@H](O)[C@H](OC(C)=O)[C@@]2(C)O1` [forskolin] was tested, and the EC50 was 256 nM and ~250 nM.
